Test results: ChEMBL document CHEMBL1201862, “PubChem BioAssay data set” (2004)
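All cell lines were grown in 96-well plates and treated with compound for 48 hours. At the GI50, growth is halved.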 Active and inactive are the calls of the source. Cut-off read from the data, not from the text of the source: active = GI50 up to about 1.1 µM and inactive = higher.

Experiments:
Assay in all cases: NCI anticancer screen, dose series, 48 h
786-0 = system: 786-0
A498 = system: A498
A549 = system: A549
ACHN = system: ACHN
CAKI-1 = system: CAKI-1
COLO 205 = system: COLO 205
DU-145 = system: DU-145
EKVX = system: EKVX
HCC 2998 = system: HCC 2998
HCT-15 = system: HCT-15
HOP-62 = system: HOP-62
HOP-92 = system: HOP-92
HT-29 = system: HT-29
Hs-578T = system: Hs-578T
IGROV-1 = system: IGROV-1
K562 = system: K562
KM12 = system: KM12
LOX IMVI = system: LOX IMVI
M14 = system: M14
MCF7 = system: MCF7
MDA-MB-231 = system: MDA-MB-231
MDA-MB-435 = system: MDA-MB-435
MDA-N = system: MDA-N
MOLT-4 = system: MOLT-4
Malme-3M = system: Malme-3M
NCI-H226 = system: NCI-H226
NCI-H23 = system: NCI-H23
NCI-H460 = system: NCI-H460
NCI-H522 = system: NCI-H522
NCI/ADR-RES = system: NCI/ADR-RES
OVCAR-3 = system: OVCAR-3
OVCAR-4 = system: OVCAR-4
OVCAR-5 = system: OVCAR-5
OVCAR-8 = system: OVCAR-8
PC-3 = system: PC-3
RPMI-8226 = system: RPMI-8226
RXF 393 = system: RXF 393
SF-268 = system: SF-268
SF-295 = system: SF-295
SF-539 = system: SF-539
SK-MEL-28 = system: SK-MEL-28
SK-MEL-2 = system: SK-MEL-2
SK-MEL-5 = system: SK-MEL-5
SK-OV-3 = system: SK-OV-3
SNB-19 = system: SNB-19
SNB-75 = system: SNB-75
SR = system: SR
SW-620 = system: SW-620
T47D = system: T47D
TK-10 = system: TK-10
U-251 = system: U-251
UACC-257 = system: UACC-257
UACC-62 = system: UACC-62
UO-31 = system: UO-31
CCRF-CEM = system: CCRF-CEM
HCT-116 = system: HCT-116
HL-60 = system: HL-60
SN12C = system: SN12C
BT-549 = system: BT-549

## CCC1=CC(OCc2ccccc2)C(CCN(Cc2ccccc2)C(=O)OCc2ccccc2)C1 (stereo unspecified)
786-0
  GI50: 19.3 µM (inactive)
A498
  GI50: 16 µM (inactive)
A549
  GI50: 15.5 µM (inactive)
ACHN
  GI50: 15.3 µM (inactive)
CAKI-1
  GI50: 14.7 µM (inactive)
COLO 205
  GI50: 20.8 µM (inactive)
DU-145
  GI50: 16.4 µM (inactive)
EKVX
  GI50: 16.1 µM (inactive)
HCC 2998
  GI50: 16.5 µM (inactive)
HCT-15
  GI50: 13.6 µM
HOP-62
  GI50: 16.5 µM (inactive)
HOP-92
  GI50: 13.5 µM (inactive)
HT-29
  GI50: 17.9 µM (inactive)
Hs-578T
  GI50: 11.5 µM (inactive)
IGROV-1
  GI50: 15.6 µM (inactive)
K562
  GI50: 11 µM (inactive)
KM12
  GI50: 15.6 µM (inactive)
LOX IMVI
  GI50: 14.9 µM (inactive)
M14
  GI50: 13.7 µM (inactive)
MCF7
  GI50: 16.1 µM (inactive)
MDA-MB-231
  GI50: 18.5 µM (inactive)
MDA-MB-435
  GI50: 17.1 µM (inactive)
MDA-N
  GI50: 30.4 µM (inactive)
MOLT-4
  GI50: 10.2 µM (inactive)
Malme-3M
  GI50: 15.6 µM (inactive)
NCI-H226
  GI50: 15.7 µM (inactive)
NCI-H23
  GI50: 14.9 µM (inactive)
NCI-H460
  GI50: 15.3 µM (inactive)
NCI-H522
  GI50: 11.7 µM (inactive)
NCI/ADR-RES
  GI50: 15.9 µM (inactive)
OVCAR-3
  GI50: 14.2 µM (inactive)
OVCAR-4
  GI50: 13.7 µM (inactive)
OVCAR-5
  GI50: 13.5 µM (inactive)
OVCAR-8
  GI50: 17.5 µM (inactive)
PC-3
  GI50: 14.3 µM (inactive)
RPMI-8226
  GI50: 8.59 µM (inactive)
RXF 393
  GI50: 3.5 µM (inactive)
SF-268
  GI50: 15.6 µM (inactive)
SF-295
  GI50: 14.8 µM (inactive)
SF-539
  GI50: 20.6 µM (inactive)
SK-MEL-28
  GI50: 20.7 µM (inactive)
SK-MEL-2
  GI50: 20.2 µM (inactive)
SK-MEL-5
  GI50: 15.4 µM (inactive)
SK-OV-3
  GI50: 20 µM (inactive)
SNB-19
  GI50: 14.8 µM (inactive)
SNB-75
  GI50: 10.3 µM (inactive)
SR
  GI50: 17.3 µM (inactive)
SW-620
  GI50: 18.4 µM (inactive)
T47D
  GI50: 6.01 µM (inactive)
TK-10
  GI50: 16.5 µM (inactive)
U-251
  GI50: 19.8 µM (inactive)
UACC-257
  GI50: 13.9 µM (inactive)
UACC-62
  GI50: 10.9 µM (inactive)
UO-31
  GI50: 14.6 µM (inactive)

## CC(C)(CCCCC(C)(C)C1NC(=O)N1)C1NC(=O)N1
A498
  GI50: > 10 µM (inactive)
A549
  GI50: > 10 µM (inactive)
ACHN
  GI50: > 10 µM (inactive)
CAKI-1
  GI50: > 10 µM (inactive)
CCRF-CEM
  GI50: > 10 µM (inactive)
COLO 205
  GI50: > 10 µM (inactive)
DU-145
  GI50: > 10 µM (inactive)
EKVX
  GI50: > 10 µM (inactive)
HCC 2998
  GI50: > 10 µM (inactive)
HCT-116
  GI50: > 10 µM (inactive)
HCT-15
  GI50: > 10 µM
HL-60
  GI50: > 10 µM (inactive)
HOP-62
  GI50: > 10 µM (inactive)
HT-29
  GI50: > 10 µM (inactive)
Hs-578T
  GI50: > 10 µM (inactive)
IGROV-1
  GI50: > 10 µM (inactive)
K562
  GI50: > 10 µM (inactive)
KM12
  GI50: > 10 µM (inactive)
LOX IMVI
  GI50: > 10 µM (inactive)
M14
  GI50: > 10 µM (inactive)
MCF7
  GI50: > 10 µM (inactive)
MDA-MB-231
  GI50: > 10 µM (inactive)
MDA-MB-435
  GI50: > 10 µM (inactive)
MDA-N
  GI50: > 10 µM (inactive)
MOLT-4
  GI50: > 10 µM (inactive)
Malme-3M
  GI50: > 10 µM (inactive)
NCI-H226
  GI50: > 10 µM (inactive)
NCI-H23
  GI50: > 10 µM (inactive)
NCI-H460
  GI50: > 10 µM (inactive)
NCI-H522
  GI50: > 10 µM (inactive)
NCI/ADR-RES
  GI50: > 10 µM (inactive)
OVCAR-4
  GI50: > 10 µM (inactive)
OVCAR-5
  GI50: > 10 µM (inactive)
OVCAR-8
  GI50: > 10 µM (inactive)
PC-3
  GI50: > 10 µM (inactive)
RPMI-8226
  GI50: > 10 µM (inactive)
RXF 393
  GI50: > 10 µM (inactive)
SF-268
  GI50: > 10 µM (inactive)
SF-295
  GI50: > 10 µM (inactive)
SF-539
  GI50: > 10 µM (inactive)
SK-MEL-28
  GI50: > 10 µM (inactive)
SK-MEL-2
  GI50: > 10 µM (inactive)
SK-MEL-5
  GI50: > 10 µM (inactive)
SK-OV-3
  GI50: > 10 µM (inactive)
SN12C
  GI50: > 10 µM (inactive)
SNB-19
  GI50: > 10 µM (inactive)
SNB-75
  GI50: > 10 µM (inactive)
SW-620
  GI50: > 10 µM (inactive)
T47D
  GI50: > 10 µM (inactive)
TK-10
  GI50: > 10 µM (inactive)
U-251
  GI50: > 10 µM (inactive)
UACC-62
  GI50: > 10 µM (inactive)
UO-31
  GI50: 5.05 µM (inactive)

## O=C(Nc1nnc(-c2ccc(Cl)cc2)o1)C(SC(=S)N1CCOCC1)c1ccccc1 (stereo unspecified)
786-0
  GI50: 9.35 µM (inactive)
A498
  GI50: 20.4 µM (inactive)
A549
  GI50: 13.8 µM (inactive)
ACHN
  GI50: 12.4 µM (inactive)
BT-549
  GI50: 16.8 µM (inactive)
CAKI-1
  GI50: 20.3 µM (inactive)
CCRF-CEM
  GI50: 10 µM (inactive)
COLO 205
  GI50: 13.7 µM (inactive)
DU-145
  GI50: 23.7 µM (inactive)
EKVX
  GI50: 14.6 µM (inactive)
HCT-116
  GI50: 10.2 µM (inactive)
HCT-15
  GI50: 6.03 µM
HL-60
  GI50: 5.69 µM (inactive)
HOP-62
  GI50: 16.6 µM (inactive)
HT-29
  GI50: 18.8 µM (inactive)
Hs-578T
  GI50: 46.2 µM (inactive)
IGROV-1
  GI50: 19.6 µM (inactive)
K562
  GI50: 11.6 µM (inactive)
KM12
  GI50: 13.7 µM (inactive)
LOX IMVI
  GI50: 7.94 µM (inactive)
M14
  GI50: 16.1 µM (inactive)
MCF7
  GI50: 22.3 µM (inactive)
MDA-MB-231
  GI50: 30.3 µM (inactive)
MDA-MB-435
  GI50: 17.6 µM (inactive)
MOLT-4
  GI50: 4.38 µM (inactive)
Malme-3M
  GI50: 35 µM (inactive)
NCI-H226
  GI50: 21.9 µM (inactive)
NCI-H23
  GI50: 20.9 µM (inactive)
NCI-H460
  GI50: 6.44 µM (inactive)
NCI-H522
  GI50: 16.3 µM (inactive)
NCI/ADR-RES
  GI50: 5.58 µM (inactive)
OVCAR-3
  GI50: 9.38 µM (inactive)
OVCAR-4
  GI50: 20.2 µM (inactive)
OVCAR-5
  GI50: 34.8 µM (inactive)
OVCAR-8
  GI50: 19.7 µM (inactive)
PC-3
  GI50: 13.6 µM (inactive)
RPMI-8226
  GI50: 9.48 µM (inactive)
RXF 393
  GI50: 26.9 µM (inactive)
SF-295
  GI50: 13.1 µM (inactive)
SF-539
  GI50: 16.7 µM (inactive)
SK-MEL-28
  GI50: 23.2 µM (inactive)
SK-MEL-2
  GI50: 14.7 µM (inactive)
SK-MEL-5
  GI50: 12.4 µM (inactive)
SK-OV-3
  GI50: 28.1 µM (inactive)
SN12C
  GI50: 8.22 µM (inactive)
SNB-19
  GI50: 27 µM (inactive)
SNB-75
  GI50: 26.4 µM (inactive)
SR
  GI50: 8.09 µM (inactive)
SW-620
  GI50: 26 µM (inactive)
T47D
  GI50: 21.7 µM (inactive)
TK-10
  GI50: 44.3 µM (inactive)
U-251
  GI50: 12.5 µM (inactive)
UACC-257
  GI50: 33 µM (inactive)
UO-31
  GI50: 4.97 µM (inactive)
